{
  "source": "patent US20260265273A1",
  "about": "“SOLID FORM OF FUSED RING COMPOUND, AND PREPARATION METHOD THEREFOR AND USE THEREOF” (APPLIED PHARMACEUTICAL SCIENCE, INC., priority 2022, published 2026)",
  "key": {"[1]": {"assay": "Solid-state stability test (XRPD, HPLC purity)", "format": "physicochemical"}, "[2]": {"assay": "Solubility Test II (saturated solubility by HPLC)", "format": "physicochemical", "details": "37° C., 24 h", "method": "Chromatographic column: Waters XTERRA RP18, 4.6 mm×150 mm, 3.5 μm or an equivalent chromatographic column. […] The gradient elution conditions are shown in Table 3-2. pH 4.5 acetate buffer: 0.59806 g of sodium acetate trihydrate was added to a 200-mL measuring flask and dissolved in an appropriate amount of water; 1.6 mL of glacial acetic acid was added; and the mixture was diluted to volume to obtain the pH 4.5 acetate buffer. pH 6.8 phosphate buffer: 1.38501 g of potassium dihydrogen phosphate and 0.18086 g of sodium hydroxide were added to the same 200-mL measuring flask; and the mixture was dissolved in water and diluted to volume to obtain the pH 6.8 phosphate buffer. 10.0 mL of each medium was precisely measured, and the media were placed into different 25-mL measuring flasks; an appropriate amount of each test crystal form was added; and the flasks were sealed and oscillated in an oscillator at 37° C. for 24 h to obtain supersaturated solutions. pH 6.8 phosphate buffer sample solution: the supersaturated solution prepared using the pH 6.8 phosphate buffer medium was filtered to obtain the pH 6.8 phosphate buffer sample solution. Water sample solution: the supersaturated solution prepared using the water medium was filtered to obtain the water sample solution. pH 4.5 acetate buffer sample solution: the supersaturated solution prepared using the pH 4.5 acetate buffer medium was filtered, and 1.0 mL of the filtrate was precisely measured and placed into a 10-mL measuring flask; the filtrate was diluted to volume with the pH 4.5 acetate buffer medium, and 1.0 mL of the solution was then precisely measured and placed into the 10-mL measuring flask; and the solution was diluted to volume with methanol to obtain the pH 4.5 acetate buffer sample solution. (ii) Preparation of crystal form A sample solution: pH 6.8 phosphate buffer sample solution: the supersaturated solution prepared using the pH 6.8 phosphate buffer medium was filtered to obtain the pH 6.8 phosphate buffer sample solution. Water sample solution: the supersaturated solution prepared using the water medium was filtered to obtain the water sample solution. pH 4.5 acetate buffer sample solution: the supersaturated solution prepared using the pH 4.5 acetate buffer medium was filtered, and 1.0 mL of the filtrate was precisely measured and placed into a 10-mL measuring flask; the filtrate was diluted to volume with the pH 4.5 acetate buffer medium, and 1.0 mL of the solution was then precisely measured and placed into a 25-mL measuring flask; and the solution was diluted to volume with methanol to obtain the pH 4.5 acetate buffer sample solution. Each medium sample solution was taken, 10 μL of each test sample solution was precisely measured and injected into a liquid chromatograph according to the chromatography conditions described above, and the chromatogram was recorded. The saturated solution degree of each medium was calculated according to the formula below. In the formula: WR=sample weight of control solution, mg; PR=purity factor of control; • AS=peak area of main peak in test solution: DS=dilution factor of test solution; • AR=peak area of main peak in control solution; DR=dilution factor of control solution;"}, "[3]": {"assay": "Hygroscopicity test (DVS)", "format": "physicochemical", "method": "Dynamic vapor sorption (DVS) curves were acquired on a DVS Intrinsic in SMS (Surface Measurement Systems). The relative humidity at 25° C. was corrected with the deliquescence points of LiCl, Mg(NO3)2, and KCl."}, "[4]": {"assay": "Pharmacokinetic experiment in SD rats", "format": "in vivo", "details": "oral intragastric 10 mg/kg, 1 mg/mL in 5% DMSO in normal saline, compound I in plasma, 0.25-24 h", "method": "Six SPF-grade SD rats were prepared and weighed before administration. The dose of administration was calculated based on the weight. […] These administration solutions were orally and intragastrically administered at 10 mg/kg. The rats were weighed before administration, and the dose of administration was calculated based on the weight. 3 rats were used for each crystal form. The administration solutions were orally and intragastrically administered, followed by collection of samples via the jugular vein or other suitable means at the following time points: 0.25 […], and 24 h. About 0.20 mL of each sample was collected, and the plasma was separated out by centrifugation within 2 h. The compound I was detected, and plasma drug concentration-time curves were plotted. The pharmacokinetic parameters were calculated by utilizing WinNonlin according to the plasma concentration data at different time points."}, "[5]": {"assay": "Crystal form change on drying or standing at room conditions", "format": "physicochemical", "method": "20 mg of the amorphous form Z prepared according to the method in Example 1 was weighed into a 3-mL vial. The solid was dissolved in 1.0-1.5 mL of solvent NMP (N-methylpyrrolidone), and the resulting mixture was filtered through a filter membrane to obtain a clear solution. About 4 mL of anti-solvent ACN was added to a 20-mL vial. The uncovered 3-mL vial containing the filtrate was placed into the 20-mL vial, and then the 20-mL vial was sealed and allowed to stand at room temperature. The solid was precipitated and collected to obtain the crystal form I. The X-ray powder diffraction pattern of this crystal form is shown in FIG. 9.\nAfter drying in the air, the crystal form P was transformed to the anhydrous crystal form C. Thus, the crystal form P was determined to be a hydrate."}, "[6]": {"assay": "1H-NMR analysis of salt crystal forms", "format": "physicochemical", "details": "DMSO-d6", "method": "1 g of the amorphous form Z prepared according to the method in Example 1 was weighed into a vial, and 14 mL of trichloromethane was added; the mixture was stirred at 35° C. for complete dissolution to obtain a solution 1; 102.64 mg of maleic acid was completely dissolved in 2 mL of ethanol to obtain a solution 2; 551 μL of the solution 2 was added to 0.7 mL of the solution 1 with stirring at room temperature, and no solid was precipitated; the mixture was stirred for 5 h and then placed at 4-8° C. overnight, and no solid was precipitated; 0.8 mL of methyl tert-butyl ether was added to obtain a turbid solution, and the turbid solution was stirred to obtain an oil; 0.4 mL of methyl tert-butyl ether was supplemented; and the mixture was successively stirred overnight, centrifuged, and dried in vacuum at 25° C. to obtain the crystal form T. The X-ray powder diffraction pattern of this crystal form is shown in FIG. 24A. […]"}, "[7]": {"details": "25° C./60% RH/uncovered, 2 weeks"}, "[8]": {"details": "25° C./60% RH/uncovered, 4 weeks"}, "[9]": {"details": "25° C./60% RH/uncovered, 6 weeks"}, "[10]": {"details": "40° C./75% RH/uncovered, 2 weeks"}, "[11]": {"details": "40° C./75% RH/uncovered, 4 weeks"}, "[12]": {"details": "40° C./75% RH/uncovered, 6 weeks"}, "[13]": {"details": "DVS, isothermal adsorption curve"}},
  "data": [
    {"compound": "CCOc1cc(-c2ccc(N3CC4CC(C3)N4Cc3ccc(OC)nc3)nc2)c2c3cn[nH]c3nn2c1", "note": "(single isomer, unassigned) [Crystal form B]", "values": [
      {"measurement": "Purity (area %)", "setting": "[1]; [7]", "result": 99.96, "unit": "area %"},
      {"measurement": "Relative to initial purity (%)", "setting": "[1]; [7]", "result": 100.01, "unit": "%"},
      {"measurement": "Purity (area %)", "setting": "[1]; [8]", "result": 99.96, "unit": "area %"},
      {"measurement": "Relative to initial purity (%)", "setting": "[1]; [8]", "result": 100.01, "unit": "%"},
      {"measurement": "Purity (area %)", "setting": "[1]; [9]", "result": 99.96, "unit": "area %"},
      {"measurement": "Relative to initial purity (%)", "setting": "[1]; [9]", "result": 100.01, "unit": "%"},
      {"measurement": "Purity (area %)", "setting": "[1]; [10]", "result": 99.96, "unit": "area %"},
      {"measurement": "Relative to initial purity (%)", "setting": "[1]; [10]", "result": 100.01, "unit": "%"},
      {"measurement": "Crystal form change", "setting": "[1]; 40° C./75% RH/uncovered, 2 weeks, XRPD", "result": "No change"},
      {"measurement": "Purity (area %)", "setting": "[1]; [11]", "result": 99.96, "unit": "area %"},
      {"measurement": "Relative to initial purity (%)", "setting": "[1]; [11]", "result": 100.01, "unit": "%"},
      {"measurement": "Purity (area %)", "setting": "[1]; [12]", "result": 99.96, "unit": "area %"},
      {"measurement": "Relative to initial purity (%)", "setting": "[1]; [12]", "result": 100.01, "unit": "%"},
      {"measurement": "Purity (area %)", "setting": "[1]; 60° C./sealed, 24 h", "result": 99.97, "unit": "area %"},
      {"measurement": "Relative to initial purity (%)", "setting": "[1]; 60° C./sealed, 24 h", "result": 100.01, "unit": "%"},
      {"measurement": "HPLC purity under the test conditions", "setting": "[1]; all stability conditions (60° C. sealed 24 h; 25° C./60% RH and 40° C./75% RH uncovered 2, 4, 6 weeks)", "result": "not significantly reduced"},
      {"measurement": "crystal form under the test conditions", "setting": "[1]; all stability conditions, XRPD", "result": "not changed"},
      {"measurement": "Saturated solubility", "setting": "[2]; Water", "result": 0.34, "unit": "µg/mL"},
      {"measurement": "Saturated solubility", "setting": "[2]; pH 4.5 acetate buffer, listed as crystal form B", "result": 3107.54, "unit": "µg/mL"},
      {"measurement": "Saturated solubility", "setting": "[2]; pH 6.8 phosphate buffer", "result": 0.02, "unit": "µg/mL"},
      {"measurement": "hygroscopicity evaluation", "setting": "[3]; DVS at 25° C., 0% RH-95% RH, according to Chinese Pharmacopoeia 2015 Edition", "result": "slightly hygroscopic"},
      {"measurement": "hygroscopic weight gain", "setting": "[3]; DVS, 25° C./80% RH, listed as crystal form B", "result": "about 1.0%"},
      {"measurement": "crystal form after the DVS test (XRPD)", "setting": "[3]; after DVS test", "result": "not changed"},
      {"measurement": "AUC(0-t)", "setting": "[4]", "result": 10424, "unit": "ng·h/mL"}
    ]},
    {"compound": "CCOc1cc(-c2ccc(N3CC4CC(C3)N4Cc3ccc(OC)nc3)nc2)c2c3cn[nH]c3nn2c1", "note": "[crystal form I]", "values": [
      {"measurement": "crystal form after drying", "setting": "[5]; drying at room temperature", "result": "transformed to the crystal form A"}
    ]},
    {"compound": "CCOc1cc(-c2ccc(N3CC4CC(C3)N4Cc3ccc(OC)nc3)nc2)c2c3cn[nH]c3nn2c1", "note": "[crystal form P]", "values": [
      {"measurement": "crystal form of the wet sample after standing", "setting": "[5]; placed in the air for about 10 min", "result": "transformation to the crystal form C"}
    ]},
    {"compound": "CCOc1cc(-c2ccc(N3CC4CC(C3)N4Cc3ccc(OC)nc3)nc2)c2c3cn[nH]c3nn2c1", "note": "[crystal form Q]", "values": [
      {"measurement": "crystal form after standing", "setting": "[5]; placed at room temperature and room humidity", "result": "transferred to the hydrate crystal form M"}
    ]},
    {"compound": "CCOc1cc(-c2ccc(N3CC4CC(C3)N4Cc3ccc(OC)nc3)nc2)c2c3cn[nH]c3nn2c1", "note": "[crystal form R]", "values": [
      {"measurement": "RH at which the form started to significantly absorb water and underwent polymorphic transition to hydrate crystal form S", "setting": "[3]; [13]", "result": 50, "unit": "% RH"}
    ]},
    {"compound": "CCOc1cc(-c2ccc(N3CC4CC(C3)N4Cc3ccc(OC)nc3)nc2)c2c3cn[nH]c3nn2c1", "note": "[crystal form S]", "values": [
      {"measurement": "RH at which the form started to dehydrate and underwent polymorphic transition to anhydrous crystal form R", "setting": "[3]; [13]", "result": 40, "unit": "% RH"}
    ]},
    {"compound": "CCOc1cc(-c2ccc(N3CC4CC(C3)N4Cc3ccc(OC)nc3)nc2)c2c3cn[nH]c3nn2c1", "note": "[crystal form T]", "values": [
      {"measurement": "stability in the 1H-NMR analysis", "setting": "[6]", "result": "decomposition occurred"}
    ]}
  ]
}
